{"source": "patent US7772241B2", "about": "“Variolin derivatives and their use as antitumor agents” (Pharma Mar S.A., priority 2001, dated 2010)", "key": {"[1]": {"test_system": "LoVo-Dox", "assay": "Inhibition of cells growth by colorimetric (SRB) assay, LoVo-Dox", "conditions": "SRB assay, 48 hours exposure", "method_in_brief": "(§1)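 Read-out is sulforhodamine B protein stain (OD 490 nm) after cold TCA fixation, following 48 h continuous exposure to samples spanning 10 to 10^−8 μg/ml.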"}, "[2]": {"test_system": "DU-145", "assay": "Inhibition of cells growth by colorimetric (SRB) assay, DU-145", "conditions": "SRB assay, 48 hours exposure", "method_in_brief": "as §1"}, "[3]": {"test_system": "LoVo", "assay": "Inhibition of cells growth by colorimetric (SRB) assay, LoVo", "conditions": "SRB assay, 48 hours exposure", "method_in_brief": "as §1"}, "[4]": {"test_system": "K-562", "assay": "Inhibition of cells growth by colorimetric (SRB) assay, K-562", "conditions": "SRB assay, 48 hours exposure", "method_in_brief": "as §1"}, "[5]": {"test_system": "A-549", "assay": "Inhibition of cells growth by colorimetric (SRB) assay, A-549", "conditions": "SRB assay, 48 hours exposure; for GI50: read-out: GI50 A-549", "method_in_brief": "as §1"}, "[6]": {"test_system": "IGROV-ET", "assay": "Inhibition of cells growth by colorimetric (SRB) assay, IGROV-ET", "conditions": "SRB assay, 48 hours exposure", "method_in_brief": "as §1"}, "[7]": {"test_system": "LNCaP", "assay": "Inhibition of cells growth by colorimetric (SRB) assay, LNCaP", "conditions": "SRB assay, 48 hours exposure", "method_in_brief": "as §1"}, "[8]": {"test_system": "HMEC1", "assay": "Inhibition of cells growth by colorimetric (SRB) assay, HMEC1", "conditions": "SRB assay, 48 hours exposure; for TGI H-MEC-1: in M (unit assumed); for GI50: read-out: GI50 H-MEC-1; for CC50: read-out: LC50 H-MEC-1", "description": "(§2) The finality of these assays is to interrupt the growth of a “in vitro” tumor cell culture by means a continued exhibition of the cells to the sample to be testing.\n(§3) This form of the assay employs 96 well cell culture microplates of 9 mm diameter (Faircloth, 1988; Mosmann, 1983). Most of the cell lines are obtained from American Type Culture Collection (ATCC) derived from different human cancer types.\n(§4) Cells are maintained in RPMI 1640 10% FBS, supplemented with 0.1 g/l penicillin and 0.1 g/l streptomycin sulphate and then incubated at 37° C., 5% CO2 and 98% humidity. For the experiments, cells were harvested from subconfluent cultures using trypsin and resuspended in fresh medium before plating.\n(§5) Cells are seeded in 96 well microtiter plates, at 5×10^3 cells per well in aliquots of 195 μl medium, and they are allowed to attach to the plate surface by growing in drug free medium for 18 hours. Afterward, samples are added in aliquots of 5 μl in a ranging from 10 to 10^−8 μg/ml, dissolved in DMSO/EtOH/PBS (0.5:0.5:99). After 48 hours exposure, the antitumor effect are measured by the SRB methodology: cells are fixed by adding 50 μl of cold 50% (wt/vol) trichloroacetic acid (TCA) and incubating for 60 minutes at 4° C. Plates are washed with deionized water and dried. One hundred μl of SRB solution (0.4% wt/vol in 1% acetic acid) is added to each microtiter well and incubated for 10 minutes at room temperature. Unbound SRB is removed by washing with 1% acetic acid. Plates are air dried and bound stain is solubilized with Tris buffer. Optical densities are read on a automated spectrophotometric plate reader at a single wavelength of 490 nm.\n(§6) The values for mean +/−SD of data from triplicate wells are calculated. Some parameters for cellular responses can be calculated: GI=growth inhibition, TGI=total growth inhibition (cytostatic effect) and LC=cell killing (cytotoxic effect)."}, "[9]": {"test_system": "SK-OV-3", "assay": "Inhibition of cells growth by colorimetric (SRB) assay, SK-OV-3", "conditions": "SRB assay, 48 hours exposure", "method_in_brief": "as §1"}, "[10]": {"test_system": "SK-MEL-28", "assay": "Inhibition of cells growth by colorimetric (SRB) assay, SK-MEL-28", "conditions": "SRB assay, 48 hours exposure", "method_in_brief": "as §1"}, "[11]": {"test_system": "HT-29", "assay": "Inhibition of cells growth by colorimetric (SRB) assay, HT-29", "conditions": "SRB assay, 48 hours exposure", "method_in_brief": "as §1"}, "[12]": {"test_system": "IGROV-1", "assay": "Inhibition of cells growth by colorimetric (SRB) assay, IGROV-1", "conditions": "SRB assay, 48 hours exposure", "method_in_brief": "as §1"}, "[13]": {"test_system": "SK-BR-3", "assay": "Inhibition of cells growth by colorimetric (SRB) assay, SK-BR-3", "conditions": "SRB assay, 48 hours exposure", "description": "as §2, §3, §4, §5, §6"}, "[14]": {"test_system": "PANC-1", "assay": "Inhibition of cells growth by colorimetric (SRB) assay, PANC-1", "conditions": "SRB assay, 48 hours exposure", "method_in_brief": "as §1"}}, "note": "Where two headings read alike, the source gives them in different places.", "data": [{"smiles": "Nc1nccc(-c2c3cc4ccccc4nc3n3c(N)nccc23)n1", "note": "[Compound 19a]", "values": [{"measurement": "TGI LOVO-DOX", "setting": "[1]", "value": "7.51E−06"}, {"measurement": "GI50", "setting": "[1]; read-out: GI50 LOVO-DOX", "value": 1.03, "unit": "µM"}, {"measurement": "TGI DU-145", "setting": "[2]", "value": "7.94E−07"}, {"measurement": "GI50", "setting": "[2]; read-out: GI50 DU-145", "value": 0.00305, "unit": "µM"}, {"measurement": "CC50", "setting": "[2]; read-out: LC50 DU-145", "value": 3.79, "unit": "µM"}, {"measurement": "TGI LOVO", "setting": "[3]", "value": "2.74E−06"}, {"measurement": "GI50", "setting": "[3]; read-out: GI50 LOVO", "value": 0.467, "unit": "µM"}, {"measurement": "CC50", "setting": "[3]; read-out: LC50 LOVO", "value": 11.1, "unit": "µM"}, {"measurement": "TGI K-562", "setting": "[4]", "value": "6.42E−06"}, {"measurement": "GI50", "setting": "[4]; read-out: GI50 K-562", "value": 1.78, "unit": "µM"}, {"measurement": "CC50", "setting": "[4]; read-out: LC50 K-562", "value": 25, "unit": "µM"}, {"measurement": "TGI A-549", "setting": "[5]", "value": "7.64E−06"}, {"measurement": "GI50", "setting": "[5]", "value": 3.24, "unit": "µM"}, {"measurement": "CC50", "setting": "[5]; read-out: LC50 A-549", "value": 18, "unit": "µM"}, {"measurement": "TGI IGROV-ET", "setting": "[6]", "value": "4.98E−06"}, {"measurement": "GI50", "setting": "[6]; read-out: GI50 IGROV-ET", "value": 1.41, "unit": "µM"}, {"measurement": "CC50", "setting": "[6]; read-out: LC50 IGROV-ET", "value": 14.5, "unit": "µM"}, {"measurement": "TGI LN-caP", "setting": "[7]", "value": "2.18E−06"}, {"measurement": "GI50", "setting": "[7]; read-out: GI50 LN-caP", "value": 0.736, "unit": "µM"}, {"measurement": "CC50", "setting": "[7]; read-out: LC50 LN-caP", "value": 22.5, "unit": "µM"}, {"measurement": "TGI H-MEC-1", "setting": "[8]", "value": "6.72E−07"}, {"measurement": "GI50", "setting": "[8]", "value": 0.123, "unit": "µM"}, {"measurement": "CC50", "setting": "[8]", "value": 3.82, "unit": "µM"}, {"measurement": "TGI SKOV-3", "setting": "[9]", "value": "4.67E−06"}, {"measurement": "GI50", "setting": "[9]; read-out: GI50 SKOV-3", "value": 1.14, "unit": "µM"}, {"measurement": "CC50", "setting": "[9]; read-out: LC50 SKOV-3", "value": 21.8, "unit": "µM"}, {"measurement": "TGI MEL-28", "setting": "[10]", "value": "5.16E−06"}, {"measurement": "GI50", "setting": "[10]; read-out: GI50 MEL-28", "value": 1.46, "unit": "µM"}, {"measurement": "CC50", "setting": "[10]; read-out: LC50 MEL-28", "value": 13.1, "unit": "µM"}, {"measurement": "TGI HT-29", "setting": "[11]", "value": "3.05E−05"}, {"measurement": "GI50", "setting": "[11]; read-out: GI50 HT-29", "value": 1.94, "unit": "µM"}, {"measurement": "TGI IGROV", "setting": "[12]", "value": "9.56E−06"}, {"measurement": "GI50", "setting": "[12]; read-out: GI50 IGROV", "value": 1.85, "unit": "µM"}, {"measurement": "TGI SK-BR-3", "setting": "[13]", "value": "1.68E−06"}, {"measurement": "GI50", "setting": "[13]; read-out: GI50 SK-BR-3", "value": 0.477, "unit": "µM"}, {"measurement": "CC50", "setting": "[13]; read-out: LC50 SK-BR-3", "value": 8.58, "unit": "µM"}, {"measurement": "TGI PANC-1", "setting": "[14]", "value": "1.41E−05"}, {"measurement": "GI50", "setting": "[14]; read-out: GI50 PANC-1", "value": 3.45, "unit": "µM"}]}, {"smiles": "COc1cccc(-c2c3cccnc3n3c(N)nccc23)c1", "note": "[Compound 62]", "values": [{"measurement": "A-549 TGI", "setting": "[5]", "value": "3.44E−05"}, {"measurement": "CC50", "setting": "[5]; read-out: A-549 LC50", "value": 34.4, "unit": "µM"}, {"measurement": "GI50", "setting": "[5]", "value": 34.4, "unit": "µM"}, {"measurement": "TGI H-MEC-1", "setting": "[8]", "value": "3.44E−05"}, {"measurement": "GI50", "setting": "[8]", "value": 34.4, "unit": "µM"}, {"measurement": "CC50", "setting": "[8]", "value": 34.4, "unit": "µM"}, {"measurement": "HT-29 TGI", "setting": "[11]", "value": "3.44E−05"}, {"measurement": "GI50", "setting": "[11]; read-out: HT-29 GI50", "value": 34.4, "unit": "µM"}, {"measurement": "CC50", "setting": "[11]; read-out: HT-29 LC50", "value": 34.4, "unit": "µM"}]}]}
